Where “and” joins values, the source holds several entries; their conditions need not be identical. Equal entries are not always repeated. Values belong to the compound of their own block, whether it stands above or below them.
Assays:
AbCGT = AbCGT (Aloe vera, UniProt A0A7G9P699); assay: Glycosyltransferase activity assay, purified AbCGT (wild type) with aglycon acceptors and UDP-Glc; assay type: biochemical, Aloe barbadensis; conditions: Reaction-1 to -3; for conversion rates, Purified Enzyme: fig. 2b, purified AbCGT, redesigned substrates
AbCGT, sequence (A0A7G9P699 entry or part of it): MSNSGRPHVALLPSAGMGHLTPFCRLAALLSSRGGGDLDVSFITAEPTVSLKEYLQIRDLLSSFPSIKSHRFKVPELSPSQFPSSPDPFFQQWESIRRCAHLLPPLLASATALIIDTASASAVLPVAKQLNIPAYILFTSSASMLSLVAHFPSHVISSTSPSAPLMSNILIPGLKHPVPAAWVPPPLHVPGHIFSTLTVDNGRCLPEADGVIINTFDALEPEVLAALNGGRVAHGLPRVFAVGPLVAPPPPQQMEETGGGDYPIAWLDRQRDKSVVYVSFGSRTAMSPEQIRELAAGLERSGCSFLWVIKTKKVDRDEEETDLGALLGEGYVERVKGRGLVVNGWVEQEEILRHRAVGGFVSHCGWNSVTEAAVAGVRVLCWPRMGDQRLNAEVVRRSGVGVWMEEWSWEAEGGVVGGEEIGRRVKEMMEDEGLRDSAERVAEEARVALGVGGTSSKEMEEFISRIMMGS
Experimental: Due to the instability of some acceptors in the buffer of pH 11.0, the reactions were performed under the physiological conditions (pH 7.4, 30 °C) to compare the catalytic activities of AbGT27 with different substrates under the same conditions. The reactions were performed at 30 °C for up to 12 h and terminated by the addition of 200 μL of ice-cold methanol. Subsequently, samples were centrifuged at 15,000 × g for 30 min to collect the supernatant, and aliquots were analyzed by HPLC-UV/ESIMS. […] The gradient programs were used for the analysis of the reactions (Supplementary Table 6). The conversion rates of the enzyme reactions were calculated from peak areas of glycosylated products and substrates as analyzed by HPLC. To facilitate inferential statistical analysis, three parallel assays were routinely performed; the means ± SD from triplicate analyses are reported here.

E. coli-AbCGT = assay: Glycosylation by whole-cell biocatalyst E. coli-AbCGT; assay type: cell-based; conditions: fig. 2c, 30 °C, M9 medium, 12 h, 0.25 mM acceptor; Reaction-1 to -3
Experimental: The induced cells of E. coli-AbCGT were harvested by centrifugation at 3000 × g for 5 min at 4 °C and washed with ddH2O. Pellets were resuspended by M9 minimal medium containing 2% glucose to appropriate cell density (OD600 = 3.0). Prepared whole-cell biocatalyst of E. coli-AbCGT (500 μL) was then added to 2-mL tubes containing various acceptors at a concentration of 0.25 mM. The mixture was incubated at 30 °C for 12 h with shaking (200 rpm). The reactions were analyzed using GT activity assays as described above. For quantification, three parallel assays were routinely carried out.

SGLT2 = molecular target: T1, SGLT2 (Homo sapiens, UniProt P31639); assay: 1-NBDG uptake in HEK293 cells stably expressing SGLT2; assay type: cell-based; conditions: HEK293, compound at 10 μM; triplicate; read-out: SGLT2 inhibitory rates
T1 construct: Human full-length SGLT2 cDNA (NM_003041.3) was synthesized; expressed in transfected cells; host or cells: HEK293, retroviral transduction with pMSCVpuro-SGLT2, puromycin selected
T1 sequence (P31639 1-672): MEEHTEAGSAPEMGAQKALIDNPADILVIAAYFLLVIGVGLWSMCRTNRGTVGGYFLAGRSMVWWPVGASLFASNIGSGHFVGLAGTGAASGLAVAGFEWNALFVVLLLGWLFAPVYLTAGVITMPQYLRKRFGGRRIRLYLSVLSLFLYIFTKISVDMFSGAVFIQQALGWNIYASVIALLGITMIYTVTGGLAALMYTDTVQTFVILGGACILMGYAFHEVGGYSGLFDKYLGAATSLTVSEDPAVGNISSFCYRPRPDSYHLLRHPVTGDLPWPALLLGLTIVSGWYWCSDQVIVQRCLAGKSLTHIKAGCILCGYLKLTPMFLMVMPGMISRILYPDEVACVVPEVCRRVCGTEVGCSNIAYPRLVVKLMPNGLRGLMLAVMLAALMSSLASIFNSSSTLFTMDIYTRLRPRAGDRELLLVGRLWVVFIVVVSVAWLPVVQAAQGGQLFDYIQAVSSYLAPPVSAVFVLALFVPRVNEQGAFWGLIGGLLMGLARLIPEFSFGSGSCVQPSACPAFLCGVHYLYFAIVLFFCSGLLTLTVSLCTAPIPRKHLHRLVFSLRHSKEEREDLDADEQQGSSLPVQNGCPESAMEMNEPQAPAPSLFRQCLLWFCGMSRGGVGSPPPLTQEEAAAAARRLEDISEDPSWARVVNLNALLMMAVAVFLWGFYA

[1] = aglycon acceptor with UDP-Glc, pH 7.4, 30 °C, up to 12 h

Compound: Oc1cc(O)c(CCCCc2ccccc2)c(O)c1 [Compound 40]
- conversion rates, Purified Enzyme (AbCGT): 100%
- conversion rates, Whole cells (E. coli-AbCGT): 100%

- inhibition at 10 µM (SGLT2): 76.4%
Compound: OCC1OC(c2c(O)cc(O)c(Cc3ccccc3)c2O)C(O)C(O)C1O (centres unmarked) [Compound 38a]

Compound: Oc1ccc(Cc2ccccc2)c(O)c1 [Compound 28]
- conversion rates, Purified Enzyme (AbCGT): 55.6% and 72.2% and 58.2%
- conversion rates, Whole cells (E. coli-AbCGT): 0.5% and 0.7% and 0.3%

Compound: Oc1cc(O)c(CC2CCCC2)c(O)c1 [Compound 36]
- conversion rates, Purified Enzyme (AbCGT): 100%
- conversion rates, Whole cells (E. coli-AbCGT): 53.8% and 69.1% and 57.1%

- inhibition at 10 µM (SGLT2): 13.6%
Compound: COc1ccc(Cc2c(O)cc(O)c([C@@H]3O[C@H](CO)[C@@H](O)[C@H](O)[C@H]3O)c2O)cc1OC [Compound 20a]

- inhibition at 10 µM (SGLT2): 62.5%
Compound: OCC1OC(c2c(O)cc(O)c(CCc3ccc(Cl)cc3)c2O)C(O)C(O)C1O (centres unmarked) [Compound 54a]

- inhibition at 10 µM (SGLT2): 68.5%
Compound: OCC1OC(c2c(O)cc(O)c(Cc3ccsc3)c2O)C(O)C(O)C1O (centres unmarked) [Compound 42a]

- inhibition at 10 µM (SGLT2): 20.4%
Compound: OCC1OC(c2c(O)cc(O)c(CCc3c[nH]c4ccccc34)c2O)C(O)C(O)C1O (centres unmarked) [Compound 43a]

- inhibition at 10 µM (SGLT2): 1.8%
- conversion rates, O,N,S-glycosylation (AbCGT; [1]): 0%
- conversion rates, di-C-glycosylation (AbCGT; [1]): 0%
- conversion rates, mono-C-glycosylation (AbCGT; [1]): 100%
Compound: COc1ccc(CCc2ccc(O)cc2O)cc1 [Compound 21]

- inhibition at 10 µM (SGLT2): 2.8%
Compound: O=C(CCc1ccc(O)cc1)c1c(O)c([C@@H]2O[C@H](CO)[C@@H](O)[C@H](O)[C@H]2O)c(O)c([C@@H]2O[C@H](CO)[C@@H](O)[C@H](O)[C@H]2O)c1O [Compound 17aa]

- inhibition at 10 µM (SGLT2): 85.4%
Compound: OCC1OC(c2c(O)cc(O)c(Cc3ccc(F)cc3)c2O)C(O)C(O)C1O (centres unmarked) [Compound 48a]

— publication PMC7558026, “Exploring and applying the substrate promiscuity of a C-glycosyltransferase in the chemo-enzymatic synthesis of bioactive C-glycosides” (Nature Communications, 2020)
